# Reference: US6737383B1, “Herbicidal oxadiazolidines” (priority 1999, dated 2004)
# Assays:
# [1] = test system: blackgrass; assay: Test B pre/postemergence blackgrass; type: in vivo, Alopecurus myosuroides
# Outline: (§1)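 Herbicidal effect was estimated by eye on a ten-point control scale after plants spent twelve to sixteen days in a greenhouse following soil or foliar treatment. Foliar sprays targeted plants at one to four leaves; all doses were formulated in a non-phytotoxic solvent with surfactant.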
# [2] = test system: purple nutsedge; assay: Test B pre/postemergence purple nutsedge; type: in vivo, Cyperus rotundus
# Outline: as §1
# [3] = test system: rice; assay: Test B flood test rice; type: in vivo, Oryza sativa
# Outline: (§2)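 Flood test on plants grown to the 2-leaf stage; treated plants kept in greenhouse twelve to sixteen days, then visually rated against controls on a 0 (no effect) to 10 (complete control) scale.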
# [4] = test system: wheat; assay: Test B pre/postemergence wheat; type: in vivo, Triticum aestivum
# Outline: as §1
# [5] = test system: surinam grass; assay: Test B pre/postemergence surinam grass; type: in vivo, Brachiaria decumbens
# Outline: as §1
# [6] = test system: duck salad; assay: Test B flood test duck salad; type: in vivo, Heteranthera limosa
# Outline: as §2
# [7] = test system: velvetleaf; assay: Test B pre/postemergence velvetleaf; type: in vivo, Abutilon theophrasti
# Outline: as §1
# [8] = test system: sugar beet; assay: Test B pre/postemergence sugar beet; type: in vivo, Beta vulgaris
# Outline: as §1
# [9] = test system: rape; assay: Test B pre/postemergence rape; type: in vivo, Brassica napus
# Outline: as §1
# [10] = test system: crabgrass; assay: Test B pre/postemergence crabgrass; type: in vivo, Digitaria sanguinalis
# Outline: as §1
# [11] = test system: morningglory; assay: Test B pre/postemergence morningglory; type: in vivo, Ipomoea hederacea
# Outline: as §1
# [12] = test system: corn; assay: Test B pre/postemergence corn; type: in vivo, Zea mays
# Outline: as §1
# [13] = test system: smallflower flatsedge; assay: Test B flood test smallflower flatsedge; type: in vivo, Cyperus difformis
# Outline: as §2
# [14] = test system: cocklebur; assay: Test B pre/postemergence cocklebur; type: in vivo, Xanthium strumarium
# Outline: as §1
# [15] = test system: pigweed; assay: Test B pre/postemergence pigweed; type: in vivo, Amaranthus retroflexus
# Outline: as §1
# [16] = test system: giant foxtail; assay: Test B pre/postemergence giant foxtail; type: in vivo, Setaria faberii
# Outline: as §1
# [17] = Postemergence, Rate 125 g/ha, scale of 0 to 10 where 0 is no effect and 10 is complete control
# [18] = Postemergence, Rate 1000 g/ha, scale 0 to 10 (0 no effect, 10 complete control)
# [19] = Preemergence, Rate 125 g/ha, 0 is no effect, 10 is complete control
# [20] = Preemergence, Rate 250 g/ha, scale 0 to 10, 0 is no effect, 10 is complete control
# [21] = Preemergence, Rate 500 g/ha, scale 0 to 10 (0 no effect, 10 complete control)
# [22] = Rate 250 g/ha, Postemergence, scale 0 to 10, 0 is no effect, 10 is complete control
# [23] = Rate 500 g/ha, Postemergence, scale 0 to 10
# [24] = Rate 1000 g/ha, Preemergence, scale 0 to 10 (0 no effect, 10 complete control)
# [25] = Postemergence (flood test species), Rate 125 g/ha, scale of 0 to 10 where 0 is no effect and 10 is complete control
# [26] = Rate 250 g/ha, Postemergence (flood test), scale 0 to 10, 0 is no effect, 10 is complete control
# [27] = Rate 500 g/ha, listed under Postemergence (flood test species), scale 0 to 10
structure (smiles),measurement,setting,value
Cc1ccccc1-n1c(=O)on(C(=O)N(c2c(F)cccc2F)C(C)C)c1=O [Compound 176],Blackgrass plant response rating,[1]; [17],0
same,Blackgrass plant response rating,[1]; [18],7
same,Blackgrass plant response rating (0 to 10 scale),[1]; [19],0
same,Blackgrass plant response rating,[1]; [20],2
same,Blackgrass plant response rating,[1]; [21],3
same,"Plant response rating, Blackgrass",[1]; [22],0
same,Blackgrass plant response rating,[1]; [23],3
same,"Plant response rating, Blackgrass",[1]; [24],7
same,Nutsedge plant response rating,[2]; [17],0
same,Nutsedge plant response rating (0 to 10 scale),[2]; [19],0
same,Nutsedge plant response rating,[2]; [20],0
same,Nutsedge plant response rating,[2]; [21],0
same,"Plant response rating, Nutsedge",[2]; [22],0
same,Nutsedge plant response rating,[2]; [23],0
same,"Plant response rating, Nutsedge",[2]; [24],10
same,Rice plant response rating,[3]; [25],0
same,Rice plant response rating,[3]; [18],0
same,"Plant response rating, Rice",[3]; [26],0
same,Rice plant response rating,[3]; [27],0
same,Wheat plant response rating,[4]; [18],4
same,Wheat plant response rating (0 to 10 scale),[4]; [19],0
same,Wheat plant response rating,[4]; [20],0
same,Wheat plant response rating,[4]; [21],0
same,"Plant response rating, Wheat",[4]; [22],0
same,Wheat plant response rating,[4]; [23],2
same,"Plant response rating, Wheat",[4]; [24],4
same,B. signalgrass plant response rating,[5]; [17],0
same,B. signalgrass plant response rating,[5]; [18],2
same,B. signalgrass plant response rating (0 to 10 scale),[5]; [19],0
same,B. signalgrass plant response rating,[5]; [20],0
same,B. signalgrass plant response rating,[5]; [21],0
same,"Plant response rating, B. signalgrass",[5]; [22],0
same,B. signalgrass plant response rating,"[5]; Rate 500 g/ha, Postemergence, scale 0 to 10, 0 no effect, 10 complete control",0
same,"Plant response rating, B. signalgrass",[5]; [24],3
same,Ducksalad plant response rating,[6]; [25],0
same,Ducksalad plant response rating,[6]; [18],0
same,"Plant response rating, Ducksalad",[6]; [26],0
same,Ducksalad plant response rating,[6]; [27],0
same,Velvetleaf plant response rating,[7]; [18],3
same,Velvetleaf plant response rating (0 to 10 scale),[7]; [19],0
same,Velvetleaf plant response rating,[7]; [20],0
same,Velvetleaf plant response rating,[7]; [21],2
same,"Plant response rating, Velvetleaf",[7]; [22],2
same,Velvetleaf plant response rating,[7]; [23],2
same,"Plant response rating, Velvetleaf",[7]; [24],5
same,Sugarbeets plant response rating,[8]; [17],0
same,Sugarbeets plant response rating,[8]; [18],4
same,Sugarbeets plant response rating (0 to 10 scale),[8]; [19],0
same,Sugarbeets plant response rating,[8]; [20],0
same,Sugarbeets plant response rating,[8]; [21],2
same,"Plant response rating, Sugarbeets",[8]; [22],0
same,Sugarbeets plant response rating,[8]; [23],0
same,"Plant response rating, Sugarbeets",[8]; [24],6
same,Rape plant response rating,[9]; [17],0
same,Rape plant response rating,[9]; [18],0
same,Rape plant response rating (0 to 10 scale),[9]; [19],0
same,Rape plant response rating,[9]; [20],0
same,Rape plant response rating,[9]; [21],0
same,"Plant response rating, Rape",[9]; [22],0
same,Rape plant response rating,[9]; [23],0
same,"Plant response rating, Rape",[9]; [24],3
same,Crabgrass plant response rating,[10]; [17],0
same,Crabgrass plant response rating,[10]; [18],9
same,Crabgrass plant response rating (0 to 10 scale),[10]; [19],8
same,Crabgrass plant response rating,[10]; [20],9
same,Crabgrass plant response rating,[10]; [21],10
same,"Plant response rating, Crabgrass",[10]; [22],3
same,Crabgrass plant response rating,[10]; [23],6
same,"Plant response rating, Crabgrass",[10]; [24],10
same,Morningglory plant response rating,[11]; [17],2
same,Morningglory plant response rating,[11]; [18],7
same,Morningglory plant response rating (0 to 10 scale),[11]; [19],0
same,Morningglory plant response rating,[11]; [20],0
same,Morningglory plant response rating,[11]; [21],0
same,"Plant response rating, Morningglory",[11]; [22],2
same,Morningglory plant response rating,[11]; [23],3
same,"Plant response rating, Morningglory",[11]; [24],0
same,Corn plant response rating,[12]; [17],0
same,Corn plant response rating,[12]; [18],0
same,Corn plant response rating (0 to 10 scale),[12]; [19],0
same,Corn plant response rating,[12]; [20],0
same,Corn plant response rating,[12]; [21],0
same,"Plant response rating, Corn",[12]; [22],0
same,Corn plant response rating,[12]; [23],0
same,"Plant response rating, Corn",[12]; [24],2
same,S. Flatsedge plant response rating,[13]; [25],0
same,S. Flatsedge plant response rating,[13]; [18],0
same,"Plant response rating, S. Flatsedge",[13]; [26],0
same,S. Flatsedge plant response rating,[13]; [27],0
same,Cocklebur plant response rating,[14]; [17],2
same,Cocklebur plant response rating,[14]; [18],6
same,Cocklebur plant response rating (0 to 10 scale),[14]; [19],0
same,Cocklebur plant response rating,[14]; [20],0
same,Cocklebur plant response rating,[14]; [21],0
same,"Plant response rating, Cocklebur",[14]; [22],2
same,Cocklebur plant response rating,[14]; [23],3
same,"Plant response rating, Cocklebur",[14]; [24],0
same,Redroot pigweed plant response rating,[15]; [17],0
same,Redroot pigweed plant response rating,[15]; [18],1
same,Redroot pigweed plant response rating (0 to 10 scale),[15]; [19],0
same,Redroot pigweed plant response rating,[15]; [20],0
same,Redroot pigweed plant response rating,[15]; [21],0
same,"Plant response rating, Redroot pigweed",[15]; [22],0
same,Redroot pigweed plant response rating,[15]; [23],0
same,"Plant response rating, Redroot pigweed",[15]; [24],0
same,Giant foxtail plant response rating,[16]; [17],0
same,Giant foxtail plant response rating,[16]; [18],7
same,Giant foxtail plant response rating (0 to 10 scale),[16]; [19],6
same,Giant foxtail plant response rating,[16]; [20],10
same,Giant foxtail plant response rating,[16]; [21],10
same,"Plant response rating, Giant foxtail",[16]; [22],0
same,Giant foxtail plant response rating,[16]; [23],6
same,"Plant response rating, Giant foxtail",[16]; [24],10
